Assays:
[1] = system: HCT116-MTAP-KO (MTAP null) cells; assay: Proliferation inhibition of HCT116 MTAP-KO cells in vitro (CellTiter Glo, 6 days); format: cell-based; details: HCT116-MTAP null, 144 h, read-out: Cell proliferation inhibition rate HCT116-MTAP null IC50 (nm)
Description: (§1) Biological Test Example 2 Proliferation Inhibition of HCT116 and HCT116 MTAP-KO Cells In Vitro
(§2) HCT116 cell line was purchased from the Chinese Academy of Sciences Cell Bank, and the MTAP gene was knocked out by CRISPR/Cas9 technology to obtain HCT116-MTAP-KO cell line.
(§3) McCoy's 5A medium (Gibco, catalog No. 16600082), fetal bovine serum (Gibco, catalog No. 10099141C), penicillin-streptomycin double antibody (Gibco, catalog No. 15140122), pancreatic enzyme (Gibco, catalog No. 25200056), CellTiter Glo assay kit (Promega, catalog No. G7572), 384-well transparent flat-bottomed black walled cell culture plate (Corning, catalog No. 3764), ultra micro sampler (Tecan, catalog No. D300e), Multimode reader (Biotek, catalog No. SynergyHTX)
(§4) • 1. Cell culture: HCT116 and HCT116-MTAP-KO cells were cultured in McCoy'5A medium+10% fetal bovine serum+1% penicillin-streptomycin double antibody; to ensure that they were always in the logarithmic growth phase and the cell viability greater than 95%. • 2. Compound concentration gradient preparation: The compound to be tested was added to a 384-well plate using an ultra micro sampler, starting from 30 μM (HCT116 cells) or 3 μM (HCT116-MTAP-KO cells), and diluted with DMSO at 3 times for a total of 9 concentrations and set up three duplicate wells. • 3. Treatment of cells with compounds: Trypsin-digested HCT116 or HCT116-MTAP-KO cell suspension was added to the 384-well plates spotted with the compounds to be tested at 40 μL per well, i.e., 100 cells per well, and the final concentration of DMSO was 0.4%. The cell culture plate was incubated at 37° C. in a 5% CO2 incubator for 6 days. • 4. Detection: 20 μL of CellTiter Glo reagent was added to each well of the cell culture plate and incubated at room temperature for 30 minutes. A multimode reader was used to detect the luminescence signal at […]. • 5. Data analysis:
(§5) The data was fitted with GraphPad Prism 8.0 software using a four parameter inhibitor-reaction model to obtain the […] (half inhibitory concentration) of the test compounds.
(§6) The first column represents cell proliferation inhibition rate HCT116 MTAP WT IC50 (nm), and the second column represents cell proliferation inhibition rate HCT116-MTAP null IC50 (nm): […]

HCT116 MTAP WT cells = assay: Proliferation inhibition of HCT116 cells in vitro (CellTiter Glo, 6 days); format: cell-based; details: Homo sapiens, HCT-116, 144 h, read-out: Cell proliferation inhibition rate HCT116 MTAP WT IC50 (nm)
Description: as §1, §2, §3, §4, §5, §6

| IC50 [1] | IC50 (HCT116 MTAP WT cells) | SMILES |
| --- | --- | --- |
| < 100 nM | 1000 to 10000 nM | CC(C)CN(Cc1cn2cc(C(F)(F)F)ccc2n1)C(=O)c1ccc2nc(N)c3c(c2c1)COC3 [Example 3, 4-Amino-N-isobutyl-N—((6-(trifluoromethyl)imidazolo [1,2-a]pyridin-2-yl)methyl)-1,3-dihydrofurano [3,4-c] quinolin-8-carboxamide] |
| < 100 nM | 1000 to 10000 nM | CC1OCc2c1c(N)nc1ccc(C(=O)N(Cc3cn4ccccc4n3)C(C)c3ncccn3)cc21 (stereo not drawn) [Example 5] |
| < 100 nM | 1000 to 10000 nM | CCN(Cc1cn2ccccc2n1)C(=O)c1ccc2nc(N)c3c(c2c1)COC3 [Example 6] |
| < 100 nM | 1000 to 10000 nM | CCN(Cc1cn2ccccc2n1)C(=O)c1ccc2nc(N)c3c(c2c1)COC3C (stereo not drawn) [Example 7] |
| < 100 nM | 1000 to 10000 nM | Cc1cc2cc(C(=O)N(Cc3cn4ccccc4n3)C(C)c3ncccn3)ccc2nc1N (stereo not drawn) [Example 8] |
| 100 to 1000 nM | 1000 to 10000 nM | Cn1ncc2c(N)nc3cc(F)c(C(=O)N(Cc4cn5ccccc5n4)C4COC4)cc3c21 [Example 9] |
| < 100 nM | 1000 to 10000 nM | CCN(C(=O)c1cc2c(cc1F)nc(N)c1cnn(C)c12)C(C)c1cn2ccccc2n1 (stereo not drawn) [Example 10] |
| < 100 nM | 1000 to 10000 nM | COCCN(Cc1cn2ccccc2n1)C(=O)c1cc2c(cc1F)nc(N)c1cnn(C)c12 [Example 11] |
| < 100 nM | 100 to 1000 nM | Cn1ncc2c(N)nc3cc(F)c(C(=O)N(Cc4cn5ccccc5n4)C45CC(C4)C5)cc3c21 [Example 12] |
| < 100 nM | 1000 to 10000 nM | Cn1cc(N(Cc2cn3ccccc3n2)C(=O)c2cc3c(cc2F)nc(N)c2cnn(C)c23)cn1 [Example 14] |
| 100 to 1000 nM | 1000 to 10000 nM | CCN(C(=O)c1ccc2nc(N)c3c(cnn3C)c2c1)C(C)c1cn2ccccc2n1 (stereo not drawn) [Example 15] |
| 100 to 1000 nM | 1000 to 10000 nM | Cn1cc(N(Cc2cn3cc(C(F)(F)F)ccc3n2)C(=O)c2ccc3nc(N)c4cnn(C)c4c3c2)cn1 [Example 16] |
| < 100 nM | 1000 to 10000 nM | CCN(Cc1cn2ccccc2n1)C(=O)c1ccc2nc(N)c3cnn(C)c3c2c1 [Example 18] |
| < 100 nM | 100 to 1000 nM | CC1COCC(c2cn3ccccc3n2)N1C(=O)c1cc2c(cc1F)nc(N)c1cnn(C)c12 (stereo not drawn) [Example 19] |
| < 100 nM | 100 to 1000 nM | CC(C)CN(Cc1cn2cc(C#N)ccc2n1)C(=O)c1cc2c(cc1F)nc(N)c1cnn(C)c12 [Example 20] |
| 100 to 1000 nM | 1000 to 10000 nM | Cn1ncc2c(N)nc3cc(F)c(C(=O)N(Cc4cn5ccccc5n4)C4CCOC4)cc3c21 (stereo not drawn) [Example 22] |
| < 100 nM | 1000 to 10000 nM | Cn1ncc2c(N)nc3cc(F)c(C(=O)N(Cc4cn5ccccc5n4)C4CCCC4O)cc3c21 (stereo not drawn) [Example 23] |
| < 100 nM | 1000 to 10000 nM | Cn1ncc2c(N)nc3cc(F)c(C(=O)N(Cc4cn5ccccc5n4)C4CCCCC4O)cc3c21 (stereo not drawn) [Example 24] |
| 100 to 1000 nM | 1000 to 10000 nM | CC1COCC(c2cn3ccccc3n2)N1C(=O)c1ccc2nc(N)c3c(cnn3C)c2c1 (stereo not drawn) [Example 25] |
| < 100 nM | 1000 to 10000 nM | Cn1ncc2c(N)nc3cc(F)c(C(=O)N(Cc4cn5ccccc5n4)CC(F)F)cc3c21 [Example 26] |
| < 100 nM | 1000 to 10000 nM | Cn1ncc2c(N)nc3cc(F)c(C(=O)N(Cc4cn5ccccc5n4)CC(C)(F)F)cc3c21 [Example 27] |
| < 100 nM | 1000 to 10000 nM | CC(N(Cc1cn2ccccc2n1)C(=O)c1cc2c(cc1F)nc(N)c1cnn(C)c12)C(F)(F)F (stereo not drawn) [Example 28] |
| 100 to 1000 nM | 1000 to 10000 nM | CCN(Cc1cn2ccccc2n1)C(=O)c1ccc2nc(N)c3c(cnn3C)c2c1 [Example 29] |
| 100 to 1000 nM | – | Cc1nn(C)cc1N(Cc1cn2cc(C(F)(F)F)ccc2n1)C(=O)c1cc2c(cc1F)nc(N)c1cnn(C)c12 [Example 238] |
| < 100 nM | – | Cn1nccc1N(Cc1cn2cc(C(F)(F)F)ccc2n1)C(=O)c1cc2c(cc1F)nc(N)c1cnn(C)c12 [Example 240] |

Source: patent US20240376126A1, “PRMT5 INHIBITOR AND THE USE THEREOF” (CYTOSINLAB THERAPEUTICS CO., LTD., priority 2022, published 2024)
